System: CNCM I-2545 and CNCM I-2546
Assay: oligonucleotide array analysis, clustering of genes by mode of regulation
Type: cell-based, human
Details: 1st symbol CNCM I-2545, 2nd CNCM I-2546
Procedure: All these cell lines were cultured in RPMI medium supplemented with 10% FCS, glutamine (2 mM), sodium pyruvate (1 mM), non-essential amino acids and HEPES buffer (10 mM) (all from GIBCO Life Sciences, Paisley, UK). When confluent, the cells were passaged by trypsinization.
Cultured melanoma cells were harvested by scraping and total cellular RNA was extracted. 10 μg from each sample were used directly as templates for cDNA synthesis using a commercial kit (Roche Molecular Biochemicals, Rotkreuz, Switzerland). The T7 promoter sequence incorporated into the cDNA synthesis primer allowed template amplification and biotin labeling by in vitro transcription using a commercial kit (Affymetrix, Santa Clara, Calif.). After alkaline heat fragmentation […] was hybridised to the array (Affymetrix, Santa Clara, Calif.) and all subsequent steps were performed following standard procedures as supplied with the arrays. Raw data were collected with a confocal laser scanner (Hewlett Packard, Palo Alto, Calif.) using GeneChip software v3.1 (Affymetrix, Santa Clara, Calif.).
Raw data were normalized based on the total chip signal obtained upon hybridisation of ME15 cell line cDNA. This array was selected because: i) the 5′/3′ intensity ratio of control genes was smaller than 3; ii)>25% of the genes are called “present” by Genechip; iii) the image appearance is homogeneous with low background and no sign of mechanical chip damage.
The normalized average difference (nAD) between the signals of the perfect and of the mismatch probesets for each gene was used as the expression level of a given gene. At least one nAD value in a pairwise comparison of data has to exceed 50 to be included. Based on nAD, change factors related to IFN-α exposure were also calculated. Negative nAD values were set to 20 in order to avoid the calculation of artificially high modifications. In order to exclude artefacts, only genes with robust change factors, greater than 2-fold, were included in the analysis. […] Genes were clustered according to their mode of regulation.
Patterns of genes expressed in IFN-α sensitive and resistant melanoma cell lines were investigated upon 48 hour culture in the presence of IFN-α. CNCM I-2546 and CNCM I-2545 were studied in detail.
In Table 2 below, CNCM I-2546 and CNCM I-2545 cultured for 48 hours in the absence or in the presence of 100 U/ml IFN-α were used to assay cytokine modulated gene expression as matched with data obtained in fibrosarcoma cells. This analysis yielded six clusters of genes. […] Data are presented as average difference of signal intensity between match and mismatch probesets.
In Table 3 below, CNCM I-2546 and CNCM I-2545 cell lines cultured for 48 hours in the absence or in the presence of 100 U/ml IFN-α were used to identify novel cytokine induced genes whose expression was not found to be modulated in fibrosarcoma cells. Cluster 1 includes genes inducible in the CNCM I-2546 sensitive but not in the CNCM I-2545 resistant cell line. Cluster 2 comprises genes inducible in both lines. Data are presented as average difference of signal intensity between match and mismatch probesets.

cluster's characteristics M19650 2′,3′-cyclic nucleotide 3prime-phosphodiesterase (Cluster 1): ˜u | cluster's characteristics U50648 interferon-inducible rna-dependent protein kinase (pkr) (Cluster 1): ˜u | cluster's characteristics X02874 2-5A synthetase (1.6 kb) (Cluster 1): ˜u | cluster's characteristics L40387 thyroid receptor interactor (trip14) (Cluster4): du | cluster's characteristics L42243 ifnar2 gene (interferon receptor) (Cluster 5): d˜ | cluster's characteristics X90846 mixed lineage kinase 2 (Cluster 5): d˜ | cluster's characteristics D32050 alanyl-trna synthetase (Table 3 Cluster 1): ˜u | cluster's characteristics L13210 mac-2 binding protein (Table 3 Cluster 1): ˜u | cluster's characteristics L37043 casein kinase i epsilon (Table 3 Cluster 1): ˜u | cluster's characteristics U18018 ela enhancer binding protein (ela-f) (Table 3 Cluster 1): ˜u | cluster's characteristics U47025 fetal brain glycogen phosphorylase b (Table 3 Cluster 1): ˜u | cluster's characteristics U50327 protein kinase c substrate 80k-h gene (prkcsh) (Table 3 Cluster 1): ˜u | cluster's characteristics U65579 mitochondrial nadh dehydrogenase-ubiquinone (Table 3 Cluster 1): ˜u | cluster's characteristics U69126 fuse binding protein 2 (fbp2) (Table 3 Cluster 1): ˜u | cluster's characteristics U91316 acyl-coa thioester hydrolase (Table 3 Cluster 1): ˜u | cluster's characteristics X95325 dna binding protein a variant (Table 3 Cluster 1): ˜u | cluster's characteristics Z26491 gene catechol o-methyltransferase (Table 3 Cluster 1): ˜u | cluster's characteristics D78132 rheb gene, ras-related gtp binding protein gene (Table 3 Cluster 2): uu | cluster's characteristics L35249 vacuolar h + -atpase mr 56,000 subunit (ho57) (Table 3 Cluster 2): uu | cluster's characteristics U70063 human acid ceramidase (Table 3 Cluster 2): uu | cluster's characteristics X70848 protein phosphatase 1, catalytic subunit (Table 3 Cluster 2): uu | cluster's characteristics Z47055 farnesyl pyrophosphate synthetase like (Table 3 Cluster 2): uu
Substance: IFN-α
cluster's characteristics D28137 bst-2 (Cluster 1): ˜u | cluster's characteristics D49824 hla-b null allele (Cluster 1): ˜u | cluster's characteristics HG658 major histocompatibility complex, class 1 c (Cluster 1): ˜u | cluster's characteristics HG2917 major histocompatibility complex, class i, e (Cluster 1): ˜u | cluster's characteristics J00105 beta-2 microglobulin gene (Cluster 1): ˜u | cluster's characteristics J04164 interferon-inducible protein 27-sep (Cluster 1): ˜u | cluster's characteristics M13755 interferon-induced 17-kda/15-kda protein (Cluster 1): ˜u | cluster's characteristics M94880 mhc class i (hla-a*8001) (Cluster 1): ˜u | cluster's characteristics U22970 16-jun gene, interferon-inducible peptide (6-16) (Cluster 1): ˜u | cluster's characteristics U51127 interferon regulatory factor 5 (Cluster 1): ˜u | cluster's characteristics X07730 prostate specific antigen (Cluster 1): ˜u | cluster's characteristics X57351 1-8d gene from interferon-inducible gene family (Cluster 1): ˜u | cluster's characteristics X57522 ring4 cdna (Cluster 1): ˜u | cluster's characteristics X67325 p27 (Cluster 1): ˜u | cluster's characteristics X96401 rox protein (Cluster 1): ˜u | cluster's characteristics Z56281 interferon regulatory factor 3 (Cluster 1): ˜u | cluster's characteristics M98343 amplaxin (ems1) (Cluster2): uu | cluster's characteristics J03909 gamma-interferon-inducible protein (ip-30) (Cluster3): u˜ | cluster's characteristics M92642 alpha-1 type xvi collagen (col16a1) (Cluster3): u˜ | cluster's characteristics U41515 dss1 (Cluster3): u˜ | cluster's characteristics M97935 transcription factor isgf-3 (Cluster4): du | cluster's characteristics U01824 glutamate/aspartate transporter (Cluster4): du | cluster's characteristics U53830 interferon regulatory factor 7a (Cluster4): du | cluster's characteristics U72882 interferon-induced leucine zipper protein (ifp35) (Cluster4): du | cluster's characteristics J00212 leukocyte interferon (ifn-alpha) (Cluster 5): d˜ | cluster's characteristics K01900 lymphocyte interferon alpha type 201 (Cluster 5): d˜ | cluster's characteristics M79462 pml-1 (Cluster 5): d˜ | cluster's characteristics U52513 rig-g (Cluster 5): d˜ | cluster's characteristics M30818 interferon-induced cellular resistance mediator protein (Cluster 6): ˜d | cluster's characteristics X15949 interferon regulatory factor-2 (irf-2) (Cluster 6): ˜d | cluster's characteristics D21235 hhr23a protein (Table 3 Cluster 1): ˜u | cluster's characteristics D28137 bst-2 (Table 3 Cluster 1): ˜u | cluster's characteristics D50914 EST (Table 3 Cluster 1): ˜u | cluster's characteristics HG1612 macmarcks (Table 3 Cluster 1): ˜u | cluster's characteristics K03515 neuroleukin (Table 3 Cluster 1): ˜u | cluster's characteristics M31013 nonmuscle myosin heavy chain (nmhc) (Table 3 Cluster 1): ˜u | cluster's characteristics M34338 spermidine synthase (Table 3 Cluster 1): ˜u | cluster's characteristics S81914 iex-1 = radiation-inducible immediate-early gene (Table 3 Cluster 1): ˜u | cluster's characteristics U09579 melanoma differentiation associated (mda-6) (Table 3 Cluster 1): ˜u | cluster's characteristics U18009 chromosome 17q21 clone lf113 (Table 3 Cluster 1): ˜u | cluster's characteristics U61263 acetolactate synthase homolog (Table 3 Cluster 1): ˜u | cluster's characteristics U65932 extracellular matrix protein 1 (ecm1) (Table 3 Cluster 1): ˜u | cluster's characteristics U72206 guanine nucleotide regulatory factor (lfp40) (Table 3 Cluster 1): ˜u | cluster's characteristics X04412 plasma gelsolin (Table 3 Cluster 1): ˜u | cluster's characteristics X76538 mpv17 (Table 3 Cluster 1): ˜u | cluster's characteristics Y00264 amyloid a4 precursor (Table 3 Cluster 1): ˜u | cluster's characteristics J04182 lysosomal membrane glycoprotein-1 (lamp1) (Table 3 Cluster 2): uu | cluster's characteristics J04444 cytochrome c-1 gene (Table 3 Cluster 2): uu | cluster's characteristics L07633 interferon-gamma (Table 3 Cluster 2): uu | cluster's characteristics M60784 ul snrnp-specific protein (Table 3 Cluster 2): uu | cluster's characteristics M65028 heterogeneous nuclear ribonucleoprotein a/b (Table 3 Cluster 2): uu | cluster's characteristics U78525 human eukaryotic translation initiation factor (eif3) (Table 3 Cluster 2): uu
